From ChEMBL document CHEMBL1201862, “PubChem BioAssay data set” (2004)
Calls of active or inactive are those of the source.

What was measured:
BJ [1] = test: cytotoxicity toward BJ-TERT fibroblasts, dose response, cell-based, RAS-independent, luminescence (AID 1933); assay type: functional; details: Homo sapiens
BJ [2] = test: cells; assay type: functional, cell-based; details: Homo sapiens
BJ [3] = test: cytotoxicity toward BJ-TERT-LT-ST fibroblasts, dose response, cell-based, RAS-independent, luminescence (AID 1935); assay type: functional; details: Homo sapiens;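 further: BJ fibroblasts immortalized with TERT plus LT and ST oncogenes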
[4] = cytotoxicity toward DRD oncogenic fibroblasts, dose response, cell-based, non-viral oncogenic, luminescence (AID 1934); assay type: functional; details: Homo sapiens
[5] = inhibitors of intracellular T. cruzi replication, confirmation, NIH3T3 host cells, beta-gal luminescence (AID 2044); assay type: functional, cell-based;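 further: intracellular parasites grown in NIH/3T3 mouse fibroblasts as host cells; luminescent beta-galactosidase reporter signal from transgenic T. cruzi replicating inside host cells; inhibitors lower the luminescence signal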
[6] = cytotoxicity toward NIH3T3 fibroblasts, dose response, counter-screen, cell-based, ATP luminescence, mouse fibroblasts (AID 2010); assay type: functional;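 further: cells exposed to compound for about 90 hours before reading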
Fatty acid synthase [7] = molecular target: T1, Fatty acid synthase (Homo sapiens, UniProt P49327); test: FAS thioesterase domain inhibitors, dose response, biochemical, endpoint fluorescence intensity, uHTS hits (AID 624327); assay type: functional;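 further: fluorescence from hydrolysis of an O-methyl fluorescein acyl ester substrate by the enzyme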
Fatty acid synthase [8] = molecular target: T1, Fatty acid synthase; test: FAS thioesterase domain inhibitors, dose response, biochemical, kinetic fluorescence intensity (AID 624326); assay type: functional;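 further: rate of fluorescence rise from hydrolysis of a fluorogenic O-methyl fluorescein ester substrate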
[9] = molecular target: T2, Replicative DNA helicase DnaB (Mycobacterium tuberculosis, UniProt P9WMR3); test: DnaB intein splicing inhibitors, dose response, biochemical, cell-free fluorescence (AID 449749); assay type: functional
T2 sequence (P9WMR3 whole entry): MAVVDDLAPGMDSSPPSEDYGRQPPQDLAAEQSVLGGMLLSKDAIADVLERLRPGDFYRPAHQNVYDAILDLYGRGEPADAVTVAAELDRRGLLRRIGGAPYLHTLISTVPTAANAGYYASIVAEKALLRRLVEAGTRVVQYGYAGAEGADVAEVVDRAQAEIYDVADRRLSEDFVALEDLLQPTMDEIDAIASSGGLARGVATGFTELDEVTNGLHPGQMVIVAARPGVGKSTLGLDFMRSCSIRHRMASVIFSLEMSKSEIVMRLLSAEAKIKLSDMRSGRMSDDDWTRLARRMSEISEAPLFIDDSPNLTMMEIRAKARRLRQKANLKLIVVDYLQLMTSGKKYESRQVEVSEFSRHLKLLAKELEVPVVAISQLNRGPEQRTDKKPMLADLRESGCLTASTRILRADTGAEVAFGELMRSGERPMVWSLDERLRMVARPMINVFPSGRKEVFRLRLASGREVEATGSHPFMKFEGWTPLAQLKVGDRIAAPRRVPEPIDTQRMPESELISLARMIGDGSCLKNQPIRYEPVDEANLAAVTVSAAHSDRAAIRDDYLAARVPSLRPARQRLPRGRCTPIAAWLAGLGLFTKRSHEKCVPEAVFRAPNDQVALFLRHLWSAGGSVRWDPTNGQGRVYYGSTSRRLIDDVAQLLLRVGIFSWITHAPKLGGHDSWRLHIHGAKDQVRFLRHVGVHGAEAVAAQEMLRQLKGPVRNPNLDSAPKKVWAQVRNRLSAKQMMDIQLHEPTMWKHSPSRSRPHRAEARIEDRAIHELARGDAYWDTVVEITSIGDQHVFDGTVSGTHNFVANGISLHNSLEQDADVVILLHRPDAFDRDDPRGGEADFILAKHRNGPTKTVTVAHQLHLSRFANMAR

Protein RecA = molecular target: T3, Protein RecA (Mycobacterium tuberculosis, UniProt P9WHJ3); test: Fluorescence Cell-Free Homogeneous Dose Retest to Identify Inhibitors of RecA-Intein Splicing Activity. [Related pubchem assays (depositor defined):AID2097, AID2223, AID489010, AID492950]; assay type: functional
T3 sequence (P9WHJ3 whole entry): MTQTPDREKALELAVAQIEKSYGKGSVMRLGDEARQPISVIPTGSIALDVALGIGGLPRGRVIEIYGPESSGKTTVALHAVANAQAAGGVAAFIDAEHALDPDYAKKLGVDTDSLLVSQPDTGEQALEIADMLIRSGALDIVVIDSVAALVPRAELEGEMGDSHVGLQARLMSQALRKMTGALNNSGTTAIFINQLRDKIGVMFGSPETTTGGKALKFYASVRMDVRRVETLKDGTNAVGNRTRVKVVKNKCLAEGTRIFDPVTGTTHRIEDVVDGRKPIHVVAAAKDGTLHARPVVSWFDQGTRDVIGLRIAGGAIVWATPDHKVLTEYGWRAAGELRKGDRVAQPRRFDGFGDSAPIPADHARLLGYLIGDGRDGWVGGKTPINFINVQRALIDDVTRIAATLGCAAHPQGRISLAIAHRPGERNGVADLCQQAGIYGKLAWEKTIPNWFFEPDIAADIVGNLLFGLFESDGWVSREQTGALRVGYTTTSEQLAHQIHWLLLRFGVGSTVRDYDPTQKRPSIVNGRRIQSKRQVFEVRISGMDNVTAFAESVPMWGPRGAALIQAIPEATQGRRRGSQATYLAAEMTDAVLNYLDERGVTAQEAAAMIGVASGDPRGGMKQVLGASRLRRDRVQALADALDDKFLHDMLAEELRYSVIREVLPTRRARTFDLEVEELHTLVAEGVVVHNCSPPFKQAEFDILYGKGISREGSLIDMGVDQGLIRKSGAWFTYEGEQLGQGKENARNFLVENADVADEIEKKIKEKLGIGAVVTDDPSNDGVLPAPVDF

Genome polyprotein = Genome polyprotein (dengue virus type 2, UniProt P29990); test: Dengue-2 NS5 methyltransferase inhibitors, primary screen, biochemical, confirmation dose response (AID 588689); assay type: functional
[10] = inhibitors of HIV Env-driven cell fusion, dose response, cherry-pick (AID 652057); assay type: functional, cell-based
[11] = ZM109 Env clade C HIV-1 fusion inhibitors, dose response, HeLa effector, CEM target cells, luciferase, cherry-pick (AID 652058); assay type: functional, cell-based
[12] = off-target signal loss in HeLa-CEM21 co-culture – HeLa F-luc CTL cells, cherry-picked, counter-screen for HIV-1 Env fusion inhibitor project, dose response (AID 652040); assay type: functional, cell-based;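 further: potency for signal decrease marking cytotoxic or nonspecific inhibition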
[13] = inhibitors of clade B AD8 Env fusion, dose response, cell-based, cherry-pick (AID 652062); assay type: functional;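 further: luciferase signal from cell-cell fusion driven by HIV-1 clade B AD8 Env; potency is for inhibitors of fusion seen as a drop in luminescence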
cells [14] = assay type: functional, cell-based
cells [15] = assay type: functional, cell-based; remark: listed apart in the source
[16] = molecular target: Induced myeloid leukemia cell differentiation protein Mcl-1 (Homo sapiens, UniProt Q07820); assay type: functional
[17] = molecular target: T4, Heat shock factor protein 1 (Mus musculus, UniProt P38532); test: inhibition of MG132-induced HSE-luciferase signal, confirmation, cell-based, NIH3T3, luminescence, dose retest (AID 2382); assay type: functional;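 further: NIH3T3 fibroblasts with HSF1-driven luciferase reporter stressed by proteasome inhibitor MG132; luminescence from HSF1-driven luciferase expression after 8 hours of MG132 stress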
T4 sequence (P38532 whole entry): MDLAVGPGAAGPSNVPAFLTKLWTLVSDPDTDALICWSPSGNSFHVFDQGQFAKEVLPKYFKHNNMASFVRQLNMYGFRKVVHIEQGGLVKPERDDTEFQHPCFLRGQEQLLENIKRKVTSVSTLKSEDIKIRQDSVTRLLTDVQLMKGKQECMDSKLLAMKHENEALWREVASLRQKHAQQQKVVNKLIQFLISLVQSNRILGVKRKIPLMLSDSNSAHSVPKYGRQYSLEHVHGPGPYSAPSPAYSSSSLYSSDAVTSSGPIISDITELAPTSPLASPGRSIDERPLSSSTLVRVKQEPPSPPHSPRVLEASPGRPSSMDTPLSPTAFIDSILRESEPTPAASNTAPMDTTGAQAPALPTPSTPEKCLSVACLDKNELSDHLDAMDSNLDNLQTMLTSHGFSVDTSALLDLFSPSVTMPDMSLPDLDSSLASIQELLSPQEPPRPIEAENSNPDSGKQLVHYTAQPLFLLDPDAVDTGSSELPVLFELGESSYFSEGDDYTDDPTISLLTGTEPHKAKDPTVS

[18] = molecular target: FAD-linked sulfhydryl oxidase ALR (Homo sapiens, UniProt P55789); test: inhibitors of human ALR sulfhydryl oxidase, dose response, biochemical, H2O2 detection, luminescence, cherry-pick (AID 493248)
Sequence of FAD-linked sulfhydryl oxidase ALR (P55789 whole entry): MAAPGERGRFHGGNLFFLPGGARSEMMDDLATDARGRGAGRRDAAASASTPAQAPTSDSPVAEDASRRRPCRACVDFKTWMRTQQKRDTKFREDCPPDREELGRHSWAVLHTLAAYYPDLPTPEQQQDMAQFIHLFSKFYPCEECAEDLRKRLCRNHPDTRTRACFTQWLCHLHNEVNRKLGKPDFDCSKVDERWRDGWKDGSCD

T1 sequence (P49327 whole entry, the tested form may be a part): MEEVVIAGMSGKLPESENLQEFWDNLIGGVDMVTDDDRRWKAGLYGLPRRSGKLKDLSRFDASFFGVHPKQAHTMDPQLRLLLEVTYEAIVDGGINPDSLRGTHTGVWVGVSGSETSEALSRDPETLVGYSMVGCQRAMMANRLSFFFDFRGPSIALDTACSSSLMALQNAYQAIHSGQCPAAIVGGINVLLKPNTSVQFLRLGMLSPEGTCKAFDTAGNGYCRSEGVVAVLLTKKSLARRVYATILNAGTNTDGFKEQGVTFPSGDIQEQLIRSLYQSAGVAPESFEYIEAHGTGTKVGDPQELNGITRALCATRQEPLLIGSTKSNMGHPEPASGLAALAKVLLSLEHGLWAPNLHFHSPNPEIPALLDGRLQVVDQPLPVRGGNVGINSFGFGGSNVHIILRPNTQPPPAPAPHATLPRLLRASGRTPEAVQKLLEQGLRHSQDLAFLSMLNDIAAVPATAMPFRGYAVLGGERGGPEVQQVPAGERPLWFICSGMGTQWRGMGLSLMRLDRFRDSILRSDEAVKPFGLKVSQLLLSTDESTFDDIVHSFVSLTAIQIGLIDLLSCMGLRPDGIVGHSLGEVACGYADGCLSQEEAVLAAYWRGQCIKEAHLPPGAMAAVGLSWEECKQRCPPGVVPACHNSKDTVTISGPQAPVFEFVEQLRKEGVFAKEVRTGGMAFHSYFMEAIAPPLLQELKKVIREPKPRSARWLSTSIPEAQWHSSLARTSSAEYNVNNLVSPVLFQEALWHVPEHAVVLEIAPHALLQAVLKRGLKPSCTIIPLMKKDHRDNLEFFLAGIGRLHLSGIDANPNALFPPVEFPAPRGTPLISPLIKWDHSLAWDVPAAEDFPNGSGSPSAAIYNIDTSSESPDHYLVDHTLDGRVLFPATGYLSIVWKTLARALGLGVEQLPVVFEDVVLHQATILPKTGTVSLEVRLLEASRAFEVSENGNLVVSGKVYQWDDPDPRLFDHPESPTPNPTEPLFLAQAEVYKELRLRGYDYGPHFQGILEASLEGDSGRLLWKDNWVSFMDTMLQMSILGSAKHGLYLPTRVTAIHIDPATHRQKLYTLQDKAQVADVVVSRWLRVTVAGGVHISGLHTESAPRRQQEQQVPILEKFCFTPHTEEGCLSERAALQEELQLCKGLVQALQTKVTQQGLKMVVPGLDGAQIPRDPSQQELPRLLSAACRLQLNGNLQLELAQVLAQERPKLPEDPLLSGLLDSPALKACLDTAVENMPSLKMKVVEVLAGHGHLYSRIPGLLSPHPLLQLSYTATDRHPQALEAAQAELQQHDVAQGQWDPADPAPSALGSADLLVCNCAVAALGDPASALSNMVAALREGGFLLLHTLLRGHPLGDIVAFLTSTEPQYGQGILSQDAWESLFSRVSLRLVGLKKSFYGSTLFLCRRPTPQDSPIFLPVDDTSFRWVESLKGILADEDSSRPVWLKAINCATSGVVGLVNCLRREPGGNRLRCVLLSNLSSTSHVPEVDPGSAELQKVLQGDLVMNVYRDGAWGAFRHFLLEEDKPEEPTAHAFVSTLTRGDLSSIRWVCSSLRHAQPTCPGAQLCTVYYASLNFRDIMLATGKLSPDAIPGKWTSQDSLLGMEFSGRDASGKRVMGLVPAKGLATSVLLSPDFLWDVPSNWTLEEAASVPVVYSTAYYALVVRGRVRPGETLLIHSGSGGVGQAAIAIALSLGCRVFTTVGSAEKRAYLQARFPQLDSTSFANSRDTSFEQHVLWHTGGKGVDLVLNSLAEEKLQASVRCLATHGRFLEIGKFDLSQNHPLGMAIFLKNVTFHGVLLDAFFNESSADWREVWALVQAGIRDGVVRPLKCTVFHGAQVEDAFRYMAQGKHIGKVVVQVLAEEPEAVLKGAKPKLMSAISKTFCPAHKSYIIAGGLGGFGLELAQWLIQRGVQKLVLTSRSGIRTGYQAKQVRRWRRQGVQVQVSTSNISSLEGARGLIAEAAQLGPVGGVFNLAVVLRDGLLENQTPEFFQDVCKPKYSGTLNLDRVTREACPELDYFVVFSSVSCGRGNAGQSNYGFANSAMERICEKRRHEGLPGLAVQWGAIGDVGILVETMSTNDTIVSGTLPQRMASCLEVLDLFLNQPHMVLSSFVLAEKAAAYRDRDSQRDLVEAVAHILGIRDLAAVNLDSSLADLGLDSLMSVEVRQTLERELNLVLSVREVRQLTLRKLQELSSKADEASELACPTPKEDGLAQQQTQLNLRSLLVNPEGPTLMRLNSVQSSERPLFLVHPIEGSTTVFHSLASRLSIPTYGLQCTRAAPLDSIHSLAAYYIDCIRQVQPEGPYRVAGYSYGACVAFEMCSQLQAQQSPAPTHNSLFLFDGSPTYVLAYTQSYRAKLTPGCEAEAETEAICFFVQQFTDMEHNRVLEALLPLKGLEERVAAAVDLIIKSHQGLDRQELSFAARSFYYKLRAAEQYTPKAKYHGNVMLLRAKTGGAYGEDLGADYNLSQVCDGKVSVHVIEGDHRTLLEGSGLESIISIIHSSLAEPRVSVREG
Sequence of Genome polyprotein (P29990 2492-3391 limits assumed): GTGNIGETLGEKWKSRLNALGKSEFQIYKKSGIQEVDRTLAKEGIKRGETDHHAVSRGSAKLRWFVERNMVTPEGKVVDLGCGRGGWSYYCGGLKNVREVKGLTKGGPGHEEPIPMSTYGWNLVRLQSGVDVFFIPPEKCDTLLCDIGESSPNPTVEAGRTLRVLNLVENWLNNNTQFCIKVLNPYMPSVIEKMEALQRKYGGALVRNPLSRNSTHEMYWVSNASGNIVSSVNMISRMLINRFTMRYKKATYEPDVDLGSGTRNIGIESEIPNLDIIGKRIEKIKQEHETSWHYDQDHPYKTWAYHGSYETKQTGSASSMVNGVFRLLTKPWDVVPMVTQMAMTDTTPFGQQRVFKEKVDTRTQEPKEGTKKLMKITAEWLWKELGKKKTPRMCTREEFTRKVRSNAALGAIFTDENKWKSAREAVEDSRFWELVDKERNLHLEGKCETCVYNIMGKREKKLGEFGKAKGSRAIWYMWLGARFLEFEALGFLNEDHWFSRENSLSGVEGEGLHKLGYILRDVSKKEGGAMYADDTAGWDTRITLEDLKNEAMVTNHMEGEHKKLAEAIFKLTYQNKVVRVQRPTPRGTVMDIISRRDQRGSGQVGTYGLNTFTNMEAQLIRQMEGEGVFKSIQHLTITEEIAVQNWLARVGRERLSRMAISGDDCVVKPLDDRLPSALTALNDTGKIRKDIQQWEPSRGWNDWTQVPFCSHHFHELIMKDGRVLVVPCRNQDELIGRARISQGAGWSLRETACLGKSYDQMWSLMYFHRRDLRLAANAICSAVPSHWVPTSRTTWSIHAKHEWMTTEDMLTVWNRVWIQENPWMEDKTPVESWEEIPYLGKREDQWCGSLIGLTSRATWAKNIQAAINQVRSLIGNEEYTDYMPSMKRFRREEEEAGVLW
Sequence of Induced myeloid leukemia cell differentiation protein Mcl-1 (Q07820 whole entry): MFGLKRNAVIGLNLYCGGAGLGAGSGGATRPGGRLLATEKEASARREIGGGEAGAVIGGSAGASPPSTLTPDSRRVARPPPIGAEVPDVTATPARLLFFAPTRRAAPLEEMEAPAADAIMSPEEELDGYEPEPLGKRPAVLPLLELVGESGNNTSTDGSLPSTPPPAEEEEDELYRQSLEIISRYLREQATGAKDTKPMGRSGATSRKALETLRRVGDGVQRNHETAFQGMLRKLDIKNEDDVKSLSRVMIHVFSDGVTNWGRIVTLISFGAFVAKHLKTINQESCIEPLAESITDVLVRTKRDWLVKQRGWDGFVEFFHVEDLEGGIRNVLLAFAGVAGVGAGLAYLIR

COC(=O)Cn1c(=O)c(C(=O)CCl)c(N)n(Cc2ccccc2)c1=O
EC50 (BJ [1]): 0.797 µM (active)
EC50 (BJ [2]): 7 µM (active)
EC50 (BJ [3]): 16.3 µM (inconclusive)
EC50 [4]: 4.86 µM (inconclusive)

O=C(Cn1cnc2cc([N+](=O)[O-])ccc2c1=O)Nc1ccc2c(c1)OCO2
EC50 [5]: 2.31 µM (active)
EC50 [6]: > 60 µM (not active)
IC50 (Fatty acid synthase [7]): 4.19 µM (active)
IC50 (Fatty acid synthase [8]): 3.65 µM (active)

CCc1ccccc1N1C(=O)C(Cl)=C(N2CCOCC2)C1=O
AC50 [9]: 6.57 µM (active)
EC50 (Protein RecA): 4.01 µM (active)
IC50 (Genome polyprotein): 83.2 µM (active)

CC(NC(=O)CN(C)CC(=O)Nc1ccc(Cl)c(C(F)(F)F)c1)c1ccccc1 (stereo unspecified)
AC50 [10]: 4.06 µM (active)
AC50 [11]: 8.39 µM (active)
AC50 [12]: 15.7 µM (active)
AC50 [13]: 14.9 µM (active)

COC(=O)Nc1ccc(S(=O)(=O)N(C)C)cc1
EC50 (cells [14]): > 350 µM (not active)
EC50 (cells [15]): > 350 µM (not active)

CC(C)OC(=O)/C(C#N)=C/c1cn(C)c2ccccc12
IC50 (Fatty acid synthase [7]): 13.8 µM (active)
IC50 (Fatty acid synthase [8]): 11.1 µM (active)

COc1cccc(-n2c(SCC(=O)N3CCOCC3)nc3c4ccccc4nc-3c2O)c1
EC50 (cells [14]): > 350 µM (not active)
EC50 (cells [15]): > 350 µM (not active)

Cc1cccc(NC(=O)C2CCN(S(=O)(=O)c3ccc4c(c3)OCCCO4)CC2)n1
AC50 [10]: 66.2 µM (active)
AC50 [12]: 42.2 µM (active)
AC50 [13]: 13.1 µM (active)

C=CCOC(=O)/C(=C\c1ccccc1)NC(=O)c1ccc(C)cc1
IC50 [16]: 2.49 µM (not active)

CC(C)C(=O)Nc1sc2c(c1C(N)=O)CCN(Cc1ccccc1)C2
EC50 (BJ [1]): > 150 µM (not active)
EC50 (BJ [2]): > 150 µM (not active)
EC50 (BJ [3]): > 150 µM (not active)
EC50 [4]: 47.8 µM (active)

COc1ccc(C(=O)Nn2c(SCc3cccc([N+](=O)[O-])c3)nc3ccccc3c2=O)cc1
IC50 (Fatty acid synthase [7]): 17.5 µM (active)
IC50 (Fatty acid synthase [8]): 14.3 µM (active)

CCN(CC)c1nc(Nc2ccccc2)nc(Oc2ccc(O)nn2)n1
AC50 [10]: 6.13 µM (active)
AC50 [11]: 9.89 µM (active)
AC50 [12]: 5.99 µM (active)
AC50 [13]: 9.57 µM (active)

COc1ccc2cc(C(C)C(=O)N3CCC(C(N)=O)CC3)ccc2c1 (stereo unspecified)
EC50 (cells [14]): > 350 µM (not active)
EC50 (cells [15]): > 350 µM (not active)

CC(=O)Nc1ccc2c(c1)CCCC2=O
EC50 (cells [14]): > 350 µM (not active)
EC50 (cells [15]): > 350 µM (not active)

COc1ccc(/C=C(\C#N)c2nc3ccccc3[nH]2)cc1O
EC50 (cells [14]): > 350 µM (not active)
EC50 (cells [15]): 8.05 µM (active)

O=C(Nc1ncc2c(n1)-c1ccccc1OC2)c1cccc([N+](=O)[O-])c1
IC50 (Fatty acid synthase [7]): 9.93 µM (active)
IC50 (Fatty acid synthase [8]): 13 µM (active)

CC(CCc1ccccc1)NC(=O)c1cccc([N+](=O)[O-])c1 (stereo unspecified)
EC50 [17]: > 195 µM (not active)
IC50 (Fatty acid synthase [7]): 6.29 µM (active)
IC50 (Fatty acid synthase [8]): 7.07 µM (active)

O=C(CCN1C(=O)/C(=C/c2ccccc2Cl)SC1=S)Nc1ccccn1
IC50 (Fatty acid synthase [7]): 6.7 µM (active)
IC50 (Fatty acid synthase [8]): 1.96 µM (active)

O=C(C[C@H]1C[C@H](C(=O)N2CCOCC2)[C@@]2(CCC3CCCC3)c3[nH]c4ccc(Cl)cc4c3CCN2C1=O)NCCc1ccccn1
IC50 (Fatty acid synthase [7]): 1.03 µM (active)
IC50 (Fatty acid synthase [8]): 1.15 µM (active)

Cc1ccc(C(=O)Nc2ccccc2C(=O)O)cc1S(=O)(=O)Nc1ccc(Br)cc1
AC50 [18]: 0.628 µM (active)
IC50 (Genome polyprotein): 49.8 µM (active)

C=C1CCN([C@@H](CC(C)C)C(=O)Nc2ccc(OC)cc2)S(=O)(=O)c2ccccc21
AC50 [10]: 2.12 µM (active)
AC50 [11]: 2.47 µM (active)
AC50 [12]: 4.03 µM (active)
AC50 [13]: 3.63 µM (active)
